From patent US20240101576A1, “HETEROCYCLIC INHIBITORS OF EGFR AND/OR HER2, FOR USE IN THE TREATMENT OF CANCER” (Scorpion Therapeutics, Inc., priority 2020, published 2024)
pIC50: −log10 of the molar value.

Columns and labels:
Format in all cases: cell-based
[1] = molecular target: T1, EGFR exon 20 FQEA Ins A763_V764 (Ba/F3 cells) (Homo sapiens, UniProt P00533, INS763FQEA); assay: Inhibitor activity on EGFR-dependent cell growth (CellTiter-Glo, 72 h), Ba/F3 EGFR exon 20 FQEA Ins; conditions: read-out: BaF3 FQEA IC50
T1 construct: expressed in transfected cells; host or cells: Ba/F3 (murine pro-B cells), retroviral transduction, puromycin selection, IL3-independent pool
How it was run: (§1)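 IC50s derive from a sigmoidal dose–response fit of CellTiter-Glo signal. The signal was normalised between […]-treated cells and cell-free medium. Ba/F3 mutant-EGFR cells, seeded at 400–800/well depending on the line, had 72 h of exposure to a 10-point, 3-fold compound series.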

[2] = molecular target: T2, EGFR exon 20 NPG Ins D770_N771 (Ba/F3 cells) (Homo sapiens, UniProt P00533, INS770NPG); assay: Inhibitor activity on EGFR-dependent cell growth (CellTiter-Glo, 72 h), Ba/F3 EGFR exon 20 NPG Ins; conditions: read-out: BaF3 NPG IC50
T2 construct: expressed in transfected cells; host or cells: Ba/F3 (murine pro-B cells), retroviral transduction, puromycin selection, IL3-independent pool
How it was run: as §1

EGFR WT (Ba/F3 cells) = molecular target: T3, EGFR WT (Ba/F3 cells) (Homo sapiens, UniProt P00533); assay: Inhibitor activity on EGFR-dependent cell growth (CellTiter-Glo, 72 h), Ba/F3 EGFR WT; conditions: read-out: BaF3 WT IC50
T3 construct: expressed in transfected cells; host or cells: Ba/F3 (murine pro-B cells), retroviral transduction, puromycin selection, maintained with EGF
How it was run: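 This growth assay used Ba/F3 cells that depend on wild-type EGFR and are kept in EGF without IL3. Compounds were made up as 10 mM DMSO stocks and diluted 3-fold over 10 points. 120 nL went onto 600 cells/well. After 72 hours, 40 μL CellTiter-Glo was added and luminescence read on EnVision after 30 min.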

EGFR L858R (Ba/F3 cells) [3] = molecular target: T4, EGFR L858R (Ba/F3 cells) (Homo sapiens, UniProt P00533, L858R); assay: Inhibitor activity on EGFR-dependent cell growth (CellTiter-Glo, 72 h), Ba/F3 EGFR L858R; conditions: read-out: BaF3 L858R IC50
T4 construct: expressed in transfected cells; host or cells: Ba/F3 (murine pro-B cells), retroviral transduction, puromycin selection, IL3-independent pool
How it was run: as §1

[4] = molecular target: T5, EGFR L858R/C797S (Ba/F3 cells) (Homo sapiens, UniProt P00533, C797S/L858R); assay: Inhibitor activity on EGFR phosphorylation (pEGFR AlphaLISA, 2 h), Ba/F3 EGFR L858R/C797S
T5 construct: expressed in transfected cells; host or cells: Ba/F3 (murine pro-B cells), retroviral transduction, puromycin selection, IL3-independent pool
How it was run: (§2)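 Steps: seed cells (Ba/F3 50K, CUTO14 12.5K per well); add 3-fold, 10-point compound dilution; incubate 2 h; lyse 1 hr; add acceptor then donor beads (1.5 hrs, RT, dark); read AlphaLISA signal for IC50.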

[5] = molecular target: T6, EGFR exon 20 ASV Ins V769_D770 (Ba/F3 cells) (Homo sapiens, UniProt P00533, INS769ASV); assay: Inhibitor activity on EGFR-dependent cell growth (CellTiter-Glo, 72 h), Ba/F3 EGFR exon 20 ASV Ins; conditions: read-out: BaF3 ASV IC50
T6 construct: expressed in transfected cells; host or cells: Ba/F3 (murine pro-B cells), retroviral transduction, puromycin selection, IL3-independent pool
T6 sequence (P00533 with tags, fused parts or gaps INS769ASV): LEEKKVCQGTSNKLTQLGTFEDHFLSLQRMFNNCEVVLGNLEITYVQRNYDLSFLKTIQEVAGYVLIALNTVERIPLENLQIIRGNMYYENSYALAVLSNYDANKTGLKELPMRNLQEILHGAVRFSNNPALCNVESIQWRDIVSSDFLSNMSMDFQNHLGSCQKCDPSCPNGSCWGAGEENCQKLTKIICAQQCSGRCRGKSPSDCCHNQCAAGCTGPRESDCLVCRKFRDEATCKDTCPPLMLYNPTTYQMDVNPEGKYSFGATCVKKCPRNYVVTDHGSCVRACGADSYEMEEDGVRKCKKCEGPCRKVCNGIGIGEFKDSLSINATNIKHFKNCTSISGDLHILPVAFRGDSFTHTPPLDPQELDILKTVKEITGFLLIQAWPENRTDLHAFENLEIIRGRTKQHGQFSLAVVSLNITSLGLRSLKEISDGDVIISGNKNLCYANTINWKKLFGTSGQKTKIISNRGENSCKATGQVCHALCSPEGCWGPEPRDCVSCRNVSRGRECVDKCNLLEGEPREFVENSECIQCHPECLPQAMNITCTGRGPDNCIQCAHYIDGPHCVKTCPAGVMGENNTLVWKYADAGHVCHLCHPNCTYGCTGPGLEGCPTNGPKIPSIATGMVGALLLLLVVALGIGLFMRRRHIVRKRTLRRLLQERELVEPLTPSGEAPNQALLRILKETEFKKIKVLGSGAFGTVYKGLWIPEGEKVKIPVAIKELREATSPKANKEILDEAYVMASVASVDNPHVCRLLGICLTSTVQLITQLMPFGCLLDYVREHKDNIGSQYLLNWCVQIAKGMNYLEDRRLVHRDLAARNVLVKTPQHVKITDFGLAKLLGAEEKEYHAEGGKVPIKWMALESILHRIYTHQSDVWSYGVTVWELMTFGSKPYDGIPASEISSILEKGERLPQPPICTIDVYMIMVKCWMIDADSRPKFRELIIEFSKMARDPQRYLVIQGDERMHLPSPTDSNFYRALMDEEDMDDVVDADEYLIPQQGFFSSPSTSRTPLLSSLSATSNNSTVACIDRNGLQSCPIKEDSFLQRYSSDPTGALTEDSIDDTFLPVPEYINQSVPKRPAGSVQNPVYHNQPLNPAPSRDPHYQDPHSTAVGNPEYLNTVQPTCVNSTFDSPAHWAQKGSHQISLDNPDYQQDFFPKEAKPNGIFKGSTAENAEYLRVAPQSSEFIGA
How it was run: as §1

EGFR L858R (Ba/F3 cells) [6] = molecular target: T4, EGFR L858R (Ba/F3 cells); assay: Inhibitor activity on EGFR phosphorylation (pEGFR AlphaLISA, 2 h), Ba/F3 EGFR L858R
From the text: (§3) Example B. Inhibitor Activity on EGFR phosphorylation (pEGFR)
(§4) EGFR mutant Ba/F3 cells were generated by transduction with retrovirus containing vectors expressing EGFR L858R, EGFR exon 19del, EGFR L858R/C797S, EGFR exon 20 NPG Ins D770_N771, EGFR exon 20 ASV Ins V769_D770, or EGFR exon 20 SVD Ins D770_N771 genes along with a puromycin selection marker. Transduced cells are selected with puromycin for 7 days and are then be transferred into culture media without Interleukin 3 (IL3). Surviving cells are confirmed to express EGFR by Western blot and maintained as a pool. CUTO14 cells were obtained from Dr. Robert C. Doebele at the University of Colorado. The IC50 date are included in Table 6 and Table 7.
(§5) 1.1 Cells are harvested from flask into cell culture medium and the cell number counted.
(§6) 1.2 Cells are diluted with culture medium to the desired density and 40 μL of cell suspension is added into each well of 384-well cell culture plate and the seeding density is 50K cells/well (Ba/F3) or 12.5K cells/well (CUTO14).
(§7) 2 Compound Preparation and Treatment
(§8) 2.1 Test compounds are dissolved to 10 mM in a DMSO stock solution. 45 μL of stock solution is transferred to a 384 polypropylene plate (pp-plate). Perform 3-fold, 10-point dilution via transferring 15 μL compound into 30 μL DMSO using a TECAN (EVO200) liquid handler.
(§9) 2.2 Spin plates at room temperature at 1,000 RPM for 1 minute.
(§10) 2.3 Transfer 5 nL of diluted compound from compound source plate into the cell plate.
(§11) 2.4 After compound treatment for 2 hours, perform pEGFR detection by AlphaLISA for compound treatment plates as described in “Detection” section.
(§12) 3 Detection by pEGFR AlphaLISA (Perkin-Elmer)
(§13) 3.1 Plates are removed from incubators and equilibrated at room temperature for 10 minutes, and media was removed
(§14) 3.2 10 μL of lysis buffer is added and plates shaken at 600 rpm for 1 hr.
(§15) 3.3 Prepare acceptor mix just before use and dispense 5 μL of acceptor mix to all the wells. Shake 350 rpm for Ihr in the dark
(§16) 3.4 Prepare donor mix under low light conditions prior to use. Dispense 5 μL of donor mix to all the wells. Mix well on the shaker, seal and wrap in aluminum foil and incubate 1.5 hrs at room temperature in the dark
(§17) 3.5 Transfer 18.5 μL mixture to OptiPlate 384, and read using an Envision. The IC50 date were included in Table 6 and Table 7.

[7] = molecular target: T7, EGFR exon 19del (Ba/F3 cells) (Homo sapiens, UniProt P00533); assay: Inhibitor activity on EGFR phosphorylation (pEGFR AlphaLISA, 2 h), Ba/F3 EGFR exon 19del; conditions: read-out: Del19 IC50 (pEGFR)
T7 sequence (P00533 with tags, fused parts or gaps DEL746-750): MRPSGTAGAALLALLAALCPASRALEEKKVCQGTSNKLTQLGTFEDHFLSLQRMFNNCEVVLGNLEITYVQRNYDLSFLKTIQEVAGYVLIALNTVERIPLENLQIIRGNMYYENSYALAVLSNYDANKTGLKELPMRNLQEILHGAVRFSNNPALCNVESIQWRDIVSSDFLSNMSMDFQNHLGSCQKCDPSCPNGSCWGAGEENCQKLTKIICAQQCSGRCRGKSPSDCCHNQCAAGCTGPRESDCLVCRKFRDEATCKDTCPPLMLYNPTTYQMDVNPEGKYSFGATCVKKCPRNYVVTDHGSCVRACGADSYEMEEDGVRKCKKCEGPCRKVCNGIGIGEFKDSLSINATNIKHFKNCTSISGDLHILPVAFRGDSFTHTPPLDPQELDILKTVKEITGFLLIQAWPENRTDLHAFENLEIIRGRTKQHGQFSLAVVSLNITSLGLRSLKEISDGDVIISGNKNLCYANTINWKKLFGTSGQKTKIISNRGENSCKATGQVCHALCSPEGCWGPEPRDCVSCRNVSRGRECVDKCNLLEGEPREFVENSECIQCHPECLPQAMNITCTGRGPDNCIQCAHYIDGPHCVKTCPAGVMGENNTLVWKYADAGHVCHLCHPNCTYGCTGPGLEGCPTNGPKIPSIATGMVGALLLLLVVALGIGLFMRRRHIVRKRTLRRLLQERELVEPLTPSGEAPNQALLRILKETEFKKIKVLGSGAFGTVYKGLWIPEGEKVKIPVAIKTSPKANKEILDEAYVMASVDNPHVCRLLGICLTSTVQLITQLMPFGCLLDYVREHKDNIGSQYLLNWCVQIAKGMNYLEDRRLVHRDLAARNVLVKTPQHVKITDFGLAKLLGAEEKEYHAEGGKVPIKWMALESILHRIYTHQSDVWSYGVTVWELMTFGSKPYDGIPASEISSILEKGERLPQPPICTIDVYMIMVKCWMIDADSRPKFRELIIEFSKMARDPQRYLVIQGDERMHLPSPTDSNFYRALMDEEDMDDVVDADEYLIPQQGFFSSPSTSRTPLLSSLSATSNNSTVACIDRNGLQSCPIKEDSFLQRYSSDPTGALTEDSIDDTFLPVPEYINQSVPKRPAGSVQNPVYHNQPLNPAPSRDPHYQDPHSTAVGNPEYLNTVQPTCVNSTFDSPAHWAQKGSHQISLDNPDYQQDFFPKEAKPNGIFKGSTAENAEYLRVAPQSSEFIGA
From the text: as §3, §4, §5, §6, §7, §8, §9, §10, §11, §12, §13, §14, §15, §16, §17

[8] = molecular target: T8, EGFR exon 20 SVD Ins D770_N771 (Ba/F3 cells) (Homo sapiens, UniProt P00533, INS770SVD); assay: Inhibitor activity on EGFR-dependent cell growth (CellTiter-Glo, 72 h), Ba/F3 EGFR exon 20 SVD Ins; conditions: read-out: BaF3 SVD IC50
T8 construct: expressed in transfected cells; host or cells: Ba/F3 (murine pro-B cells), retroviral transduction, puromycin selection, IL3-independent pool
T8 sequence (P00533 with tags, fused parts or gaps INS770SVD): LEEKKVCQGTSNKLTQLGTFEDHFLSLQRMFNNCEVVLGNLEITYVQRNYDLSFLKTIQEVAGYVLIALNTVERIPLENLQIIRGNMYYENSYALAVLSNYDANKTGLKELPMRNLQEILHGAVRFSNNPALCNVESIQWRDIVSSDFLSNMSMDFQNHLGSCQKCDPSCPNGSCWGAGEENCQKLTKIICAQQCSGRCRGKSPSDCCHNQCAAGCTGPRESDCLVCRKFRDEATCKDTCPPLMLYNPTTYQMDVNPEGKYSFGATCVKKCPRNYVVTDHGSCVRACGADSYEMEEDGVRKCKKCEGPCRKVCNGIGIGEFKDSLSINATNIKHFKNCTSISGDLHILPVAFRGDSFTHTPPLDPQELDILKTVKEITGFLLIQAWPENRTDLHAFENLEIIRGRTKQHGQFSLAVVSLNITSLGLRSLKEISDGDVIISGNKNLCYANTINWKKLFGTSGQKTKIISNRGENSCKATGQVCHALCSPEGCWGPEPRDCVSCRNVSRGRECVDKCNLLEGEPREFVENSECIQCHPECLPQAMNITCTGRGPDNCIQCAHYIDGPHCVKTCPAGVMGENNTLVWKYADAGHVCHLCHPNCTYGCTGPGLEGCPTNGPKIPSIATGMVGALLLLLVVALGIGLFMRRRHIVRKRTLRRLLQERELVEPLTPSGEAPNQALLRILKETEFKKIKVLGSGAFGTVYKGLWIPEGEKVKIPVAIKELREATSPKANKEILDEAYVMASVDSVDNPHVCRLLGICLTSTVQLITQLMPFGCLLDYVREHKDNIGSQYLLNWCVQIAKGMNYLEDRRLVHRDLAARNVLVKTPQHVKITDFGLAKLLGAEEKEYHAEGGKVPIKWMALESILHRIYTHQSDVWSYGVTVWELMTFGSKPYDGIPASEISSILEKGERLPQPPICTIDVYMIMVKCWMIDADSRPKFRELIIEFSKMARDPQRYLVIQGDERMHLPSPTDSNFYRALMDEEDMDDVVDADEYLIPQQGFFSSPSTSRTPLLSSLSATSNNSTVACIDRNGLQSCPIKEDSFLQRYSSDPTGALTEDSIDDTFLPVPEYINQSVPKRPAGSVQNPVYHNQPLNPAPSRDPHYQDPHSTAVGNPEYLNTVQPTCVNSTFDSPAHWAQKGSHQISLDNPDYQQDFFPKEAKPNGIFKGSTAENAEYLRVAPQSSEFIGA
How it was run: as §1

[9] = molecular target: T7, EGFR exon 19del (Ba/F3 cells); assay: Inhibitor activity on EGFR-dependent cell growth (CellTiter-Glo, 72 h), Ba/F3 EGFR exon 19del; conditions: Ba/F3 EGFR exon 19del cell growth, read-out: BaF3 Del19 IC50
How it was run: as §1

[10] = molecular target: T5, EGFR L858R/C797S (Ba/F3 cells); assay: Inhibitor activity on EGFR-dependent cell growth (CellTiter-Glo, 72 h), Ba/F3 EGFR L858R/C797S; conditions: read-out: BaF3 L858R/C797S IC50
How it was run: as §1

EGFR (CUTO14 cells) = EGFR (CUTO14 cells) (Homo sapiens, UniProt P00533); assay: Inhibitor activity on EGFR phosphorylation (pEGFR AlphaLISA, 2 h), CUTO14 cells
Sequence of EGFR (CUTO14 cells) (P00533 with tags, fused parts or gaps DUP767-769): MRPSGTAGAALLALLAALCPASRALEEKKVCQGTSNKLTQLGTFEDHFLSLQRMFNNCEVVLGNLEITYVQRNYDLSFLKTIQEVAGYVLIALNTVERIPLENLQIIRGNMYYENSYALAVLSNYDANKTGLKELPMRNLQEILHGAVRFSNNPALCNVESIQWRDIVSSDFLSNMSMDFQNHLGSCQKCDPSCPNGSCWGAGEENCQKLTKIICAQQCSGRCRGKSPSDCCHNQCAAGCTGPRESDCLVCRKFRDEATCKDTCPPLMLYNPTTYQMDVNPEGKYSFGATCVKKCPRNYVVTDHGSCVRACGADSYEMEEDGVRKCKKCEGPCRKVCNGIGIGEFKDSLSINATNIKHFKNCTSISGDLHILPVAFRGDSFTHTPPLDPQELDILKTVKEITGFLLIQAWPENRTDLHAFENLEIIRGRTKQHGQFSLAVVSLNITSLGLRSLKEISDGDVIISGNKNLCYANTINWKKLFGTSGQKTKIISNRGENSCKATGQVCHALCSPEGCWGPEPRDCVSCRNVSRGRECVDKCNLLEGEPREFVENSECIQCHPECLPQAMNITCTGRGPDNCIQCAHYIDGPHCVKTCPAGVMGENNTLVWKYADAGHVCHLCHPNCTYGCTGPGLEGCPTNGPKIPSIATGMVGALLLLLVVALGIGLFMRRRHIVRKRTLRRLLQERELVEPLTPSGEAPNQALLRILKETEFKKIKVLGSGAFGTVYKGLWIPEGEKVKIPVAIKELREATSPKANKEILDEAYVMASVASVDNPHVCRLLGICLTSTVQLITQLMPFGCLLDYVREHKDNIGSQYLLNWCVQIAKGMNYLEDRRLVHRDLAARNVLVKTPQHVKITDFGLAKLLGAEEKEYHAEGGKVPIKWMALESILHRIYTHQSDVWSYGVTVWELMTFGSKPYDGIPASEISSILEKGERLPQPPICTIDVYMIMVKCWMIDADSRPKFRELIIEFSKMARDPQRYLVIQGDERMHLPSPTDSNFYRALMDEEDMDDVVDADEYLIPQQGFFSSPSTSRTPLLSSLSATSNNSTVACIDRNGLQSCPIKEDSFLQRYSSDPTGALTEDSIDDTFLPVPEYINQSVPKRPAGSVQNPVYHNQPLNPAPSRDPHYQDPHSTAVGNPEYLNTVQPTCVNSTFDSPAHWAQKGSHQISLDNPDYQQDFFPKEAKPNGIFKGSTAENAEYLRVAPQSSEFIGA
How it was run: as §2

pIC50 [1]	pIC50 [2]	pIC50 (EGFR WT (Ba/F3 cells))	pIC50 (EGFR L858R (Ba/F3 cells) [3])	pIC50 [4]	pIC50 [5]	pIC50 (EGFR L858R (Ba/F3 cells) [6])	pIC50 [7]	pIC50 [8]	pIC50 [9]	pIC50 [10]	pIC50 (EGFR (CUTO14 cells))	SMILES
> 7.00	> 7.00	6.00 to 7.00	> 7.00	> 7.00	> 7.00	> 7.00	> 7.00	> 7.00	> 7.00	> 7.00	–	COc1c(Cl)cccc1Nc1c(-c2ccncc2F)[nH]c2c1C(=O)NC[C@]21CCN(CC(F)F)C1 [compound 821]
> 7.00	> 7.00	6.00 to 7.00	> 7.00	> 7.00	–	> 7.00	> 7.00	–	> 7.00	> 7.00	> 7.00	COc1c(Cl)cccc1Nc1c(-c2ccncn2)[nH]c2c1C(=O)NC[C@H]2C[C@@H]1COCCO1 [Compound 568, (7R)-3-[(3-chloro-2-methoxyphenyl)amino]-7-[(2R)-1,4-dioxan-2-ylmethyl]-2-(pyrimidin-4-yl)-1H,5H,6H,7H-pyrrolo[3,2-c]pyridin-4-one]
–	> 7.00	6.00 to 7.00	> 7.00	> 7.00	–	> 7.00	> 7.00	–	> 7.00	> 7.00	> 7.00	COc1c(Cl)cccc1Nc1c(-c2ccncn2)[nH]c2c1C(=O)NCC2C[C@H]1COCCO1 (single isomer, unassigned) [Compound 527, (7R*)-3-[(3-chloro-2-methoxyphenyl)amino]-7-[(2S)-1,4-dioxan-2-ylmethyl]-2-(pyrimidin-4-yl)-1H,5H,6H,7H-pyrrolo[3,2-c]pyridin-4-one]
> 7.00	> 7.00	6.00 to 7.00	> 7.00	> 7.00	> 7.00	> 7.00	> 7.00	> 7.00	> 7.00	> 7.00	–	COc1c(Cl)cccc1Nc1c(-c2ccnc3ccc(C)nc23)[nH]c2c1C(=O)NCC2 [compound 749, 3-[(3-chloro-2-methoxyphenyl)amino]-2-(6-methyl-1,5-naphthyridin-4-yl)-1H,5H,6H,7H-pyrrolo[3,2-c]pyridin-4-one]
> 7.00	> 7.00	6.00 to 7.00	> 7.00	> 7.00	> 7.00	> 7.00	> 7.00	> 7.00	> 7.00	> 7.00	> 7.00	COc1c(F)cccc1Nc1c(-c2ccncn2)[nH]c2c1C(=O)NC[C@H]2C[C@@H]1COCCO1 [Compound 569, (7R)-7-[(2R)-1,4-dioxan-2-ylmethyl]-3-[(3-fluoro-2-methoxyphenyl)amino]-2-(pyrimidin-4-yl)-1H,5H,6H,7H-pyrrolo[3,2-c]pyridin-4-one]
> 7.00	> 7.00	> 7.00	> 7.00	> 7.00	> 7.00	> 7.00	> 7.00	> 7.00	> 7.00	> 7.00	–	COc1c(Cl)cccc1Nc1c(-c2ccnc3ccc(OC4(C)COC4)nc23)[nH]c2c1C(=O)NCC2 [Compound 787, 3-[(3-chloro-2-methoxyphenyl)amino]-2-[6-[(3-methyloxetan-3-yl)oxy]-1,5-naphthyridin-4-yl]-1H,5H,6H,7H-pyrrolo[3,2-c] pyridin-4-one]
> 7.00	> 7.00	> 7.00	> 7.00	> 7.00	> 7.00	> 7.00	> 7.00	> 7.00	> 7.00	> 7.00	–	CCOc1ncc2nccc(-c3[nH]c4c(c3Nc3cccc(Cl)c3OC)C(=O)NCC4)c2n1 [compound 827, 3-[(3-chloro-2-methoxyphenyl)amino]-2-{2-ethoxypyrido[3,2-d]pyrimidin-8-yl}-1H,5H,6H,7H-pyrrolo[3,2-c]pyridin-4-one]
